From US20240317780A1, “RADIOPHARMACEUTICAL SOMATOSTATIN RECEPTOR LIGANDS AND PRECURSORS THEREOF” (Technische Universität München, priority 2021, published 2024)

Tested on: not listed separately
Assay: Octanol-water distribution coefficient (logD pH 7.4) of the labeled tracer
Type: physicochemical
Details: n-octanol/PBS pH 7.4, room temperature
Protocol: Approximately 1 MBq of the labeled tracer was dissolved in 1 mL of a 1:1 mixture (by volumes) of phosphate buffered saline (PBS, pH 7.4) and n-octanol in an Eppendorf tube. After vigorous mixing of the suspension for 3 minutes at room temperature, the vial was centrifuged at 15000 g for 5 minutes (Biofuge 15, Heraus Sepatech, Osterode, Germany) and 100 μL aliquots of both layers were measured in a gamma counter. The experiment was repeated at least six times.

Row | SMILES | LogDpH=7.4
1 | C[C@@H](O)[C@H](NC(=O)C1CSSCC(NC(=O)C(Cc2ccccc2)NC(=O)CNC(=O)CNC(=O)[C@@H](CC(=O)O)NC(=O)C(CC(=O)O)NC(=O)[C@@H](CNC(=O)CN2CCN(CC(=O)O)CCN(CC(=O)O)CCN(CC(=O)O)CC2)NC(=O)C(CN)NC(=O)c2ccc([Si](F)(C(C)(C)C)C(C)(C)C)cc2)C(=O)N[C@@H](Cc2ccc(O)cc2)C(=O)NC(Cc2c[nH]c3ccccc23)C(=O)N[C@@H](CCCCN)C(=O)N[C@@H]([C@@H](C)O)C(=O)N1)C(=O)O (stereo partly drawn) [[Lu]19] | −1.85 ± 0.02
2 | C[C@@H](O)[C@H](NC(=O)C1CSSCC(NC(=O)C(Cc2ccccc2)NC(=O)CNC(=O)CNC(=O)[C@@H](CC(=O)O)NC(=O)C(CC(=O)O)NC(=O)[C@@H](CNC(=O)CN2CCN(CC(=O)O)CCN(CC(=O)O)CCN(CC(=O)O)CC2)NC(=O)C[N+](C)(C)Cc2ccc([Si](F)(C(C)(C)C)C(C)(C)C)cc2)C(=O)N[C@@H](Cc2ccc(O)cc2)C(=O)NC(Cc2c[nH]c3ccccc23)C(=O)N[C@@H](CCCCN)C(=O)N[C@@H]([C@@H](C)O)C(=O)N1)C(=O)O (stereo partly drawn) [[Lu]24] | −1.90 ± 0.05
3 | C[C@@H](O)[C@H](NC(=O)C1CSSCC(NC(=O)C(Cc2ccccc2)NC(=O)COCCOCCNC(=O)C(CC(=O)O)NC(=O)[C@@H](CC(=O)O)NC(=O)C(CNC(=O)c2ccc([Si](F)(C(C)(C)C)C(C)(C)C)cc2)NC(=O)CCC(C(=O)O)N2CCN(CC(=O)O)CCN(CC(=O)O)CCN(CC(=O)O)CC2)C(=O)N[C@@H](Cc2ccc(O)cc2)C(=O)NC(Cc2c[nH]c3ccccc23)C(=O)N[C@@H](CCCCN)C(=O)N[C@@H]([C@@H](C)O)C(=O)N1)C(=O)O (stereo partly drawn) (natGa complex, metal not drawn) [[Ga]1] | −2.02 ± 0.04
4 | C[C@@H](O)[C@H](NC(=O)C1CSSCC(NC(=O)C(Cc2ccccc2)NC(=O)[C@@H](CC(N)=O)NC(=O)C(CC(N)=O)NC(=O)[C@@H](CC(=O)O)NC(=O)C(CC(=O)O)NC(=O)[C@@H](CNC(=O)CN2CCN(CC(=O)O)CCN(CC(=O)O)CCN(CC(=O)O)CC2)NC(=O)C[N+](C)(C)Cc2ccc([Si](F)(C(C)(C)C)C(C)(C)C)cc2)C(=O)N[C@@H](Cc2ccc(O)cc2)C(=O)NC(Cc2c[nH]c3ccccc23)C(=O)N[C@@H](CCCCN)C(=O)N[C@@H]([C@@H](C)O)C(=O)N1)C(=O)O (stereo partly drawn) [[Lu]48] | −2.19 ± 0.05
5 | C[C@@H](O)[C@H](NC(=O)C1CSSCC(NC(=O)C(Cc2ccccc2)NC(=O)CNC(=O)CNC(=O)CNC(=O)C(CC(=O)O)NC(=O)[C@@H](CC(=O)O)NC(=O)C(CCC(=O)O)NC(=O)[C@@H](CNC(=O)C[N+](C)(C)Cc2ccc([Si](F)(C(C)(C)C)C(C)(C)C)cc2)NC(=O)CN2CCN(CC(=O)O)CCN(CC(=O)O)CCN(CC(=O)O)CC2)C(=O)N[C@@H](Cc2ccc(O)cc2)C(=O)NC(Cc2c[nH]c3ccccc23)C(=O)N[C@@H](CCCCN)C(=O)N[C@@H]([C@@H](C)O)C(=O)N1)C(=O)O (stereo partly drawn) [[Lu]47] | −2.29 ± 0.03
6 | C[C@@H](O)[C@H](NC(=O)C1CSSCC(NC(=O)C(Cc2ccccc2)NC(=O)CNC(=O)CNC(=O)CNC(=O)C(CC(=O)O)NC(=O)[C@@H](CC(=O)O)NC(=O)C(CCCCN)NC(=O)[C@@H](CNC(=O)C[N+](C)(C)Cc2ccc([Si](F)(C(C)(C)C)C(C)(C)C)cc2)NC(=O)CN2CCN(CC(=O)O)CCN(CC(=O)O)CCN(CC(=O)O)CC2)C(=O)N[C@@H](Cc2ccc(O)cc2)C(=O)NC(Cc2c[nH]c3ccccc23)C(=O)N[C@@H](CCCCN)C(=O)N[C@@H]([C@@H](C)O)C(=O)N1)C(=O)O (stereo partly drawn) [[Lu]45] | −2.10 ± 0.08
7 | C[C@@H](O)[C@H](NC(=O)C1CSSCC(NC(=O)C(Cc2ccccc2)NC(=O)COCCOCCNC(=O)C(CC(=O)O)NC(=O)[C@@H](CC(=O)O)NC(=O)C(CNC(=O)c2ccc([Si](F)(C(C)(C)C)C(C)(C)C)cc2)NC(=O)CN2CCN(CC(=O)O)CCN(CC(=O)O)CCN(CC(=O)O)CC2)C(=O)N[C@@H](Cc2ccc(O)cc2)C(=O)NC(Cc2c[nH]c3ccccc23)C(=O)N[C@@H](CCCCN)C(=O)N[C@@H]([C@@H](C)O)C(=O)N1)C(=O)O (stereo partly drawn) (natGa complex, metal not drawn) [[Ga]3] | −1.87 ± 0.07
8 | C[C@@H](O)[C@H](NC(=O)C1CSSCC(NC(=O)C(Cc2ccccc2)NC(=O)[C@@H](CC(N)=O)NC(=O)C(CC(N)=O)NC(=O)CNC(=O)C(CC(=O)O)NC(=O)[C@@H](CC(=O)O)NC(=O)C(CNC(=O)CN2CCN(CC(=O)O)CCN(CC(=O)O)CCN(CC(=O)O)CC2)NC(=O)C[N+](C)(C)Cc2ccc([Si](F)(C(C)(C)C)C(C)(C)C)cc2)C(=O)N[C@@H](Cc2ccc(O)cc2)C(=O)NC(Cc2c[nH]c3ccccc23)C(=O)N[C@@H](CCCCN)C(=O)N[C@@H]([C@@H](C)O)C(=O)N1)C(=O)O (stereo partly drawn) [[Lu]49] | −2.24 ± 0.06
9 | C[C@@H](O)[C@H](NC(=O)C1CSSCC(NC(=O)C(Cc2ccccc2)NC(=O)CNC(=O)CNC(=O)CNC(=O)C(CC(=O)O)NC(=O)[C@@H](CC(=O)O)NC(=O)C(CNC(=O)C[N+](C)(C)Cc2ccc([Si](F)(C(C)(C)C)C(C)(C)C)cc2)NC(=O)CN2CCN(CC(=O)O)CCN(CC(=O)O)CCN(CC(=O)O)CC2)C(=O)N[C@@H](Cc2ccc(O)cc2)C(=O)NC(Cc2c[nH]c3ccccc23)C(=O)N[C@@H](CCCCN)C(=O)N[C@@H]([C@@H](C)O)C(=O)N1)C(=O)O (stereo partly drawn) [[Lu]44] | −1.98 ± 0.05
10 | C[C@@H](O)[C@H](NC(=O)C1CSSCC(NC(=O)C(Cc2ccccc2)NC(=O)COCCOCCNC(=O)C(CC(=O)O)NC(=O)[C@@H](CC(=O)O)NC(=O)C(CNC(=O)CCC(C(=O)O)N2CCN(CC(=O)O)CCN(CC(=O)O)CCN(CC(=O)O)CC2)NC(=O)c2ccc([Si](F)(C(C)(C)C)C(C)(C)C)cc2)C(=O)N[C@@H](Cc2ccc(O)cc2)C(=O)NC(Cc2c[nH]c3ccccc23)C(=O)N[C@@H](CCCCN)C(=O)N[C@@H]([C@@H](C)O)C(=O)N1)C(=O)O (stereo partly drawn) (natGa complex, metal not drawn) [[Ga]2] | −2.3 ± 0.09
11 | C[C@@H](O)[C@H](NC(=O)C1CSSCC(NC(=O)C(Cc2ccccc2)NC(=O)COCCOCCNC(=O)C(CC(=O)O)NC(=O)[C@@H](CC(=O)O)NC(=O)C(CNC(=O)CN2CCN(CC(=O)O)CCN(CC(=O)O)CCN(CC(=O)O)CC2)NC(=O)c2ccc([Si](F)(C(C)(C)C)C(C)(C)C)cc2)C(=O)N[C@@H](Cc2ccc(O)cc2)C(=O)NC(Cc2c[nH]c3ccccc23)C(=O)N[C@@H](CCCCN)C(=O)N[C@@H]([C@@H](C)O)C(=O)N1)C(=O)O (stereo partly drawn) (natGa complex, metal not drawn) [[Ga]4] | −2.15 ± 0.11
12 | C[C@@H](O)[C@H](NC(=O)C1CSSCC(NC(=O)C(Cc2ccccc2)NC(=O)CNC(=O)CNC(=O)CNC(=O)C(CC(=O)O)NC(=O)[C@@H](CC(=O)O)NC(=O)C(CCCNC(N)=O)NC(=O)[C@@H](CNC(=O)C[N+](C)(C)Cc2ccc([Si](F)(C(C)(C)C)C(C)(C)C)cc2)NC(=O)CN2CCN(CC(=O)O)CCN(CC(=O)O)CCN(CC(=O)O)CC2)C(=O)N[C@@H](Cc2ccc(O)cc2)C(=O)NC(Cc2c[nH]c3ccccc23)C(=O)N[C@@H](CCCCN)C(=O)N[C@@H]([C@@H](C)O)C(=O)N1)C(=O)O (stereo partly drawn) [[Lu]46] | −2.12 ± 0.05

Target: T1, SST2 (Homo sapiens, UniProt P30874)
T1 construct: expressed in transfected cells; host or cells: CHO (Chinese hamster ovary) cells
Assay: Determination of IC50: competitive binding against [125I]TOC on SST2-transfected CHO cells
Details: [125I]TOC reference radioligand, 60 min room temperature
Protocol: The SST2-transfected CHO cells were cultivated in Dulbecco's Modified Eagle Medium/Nutrient Mixture F-12 (DMEM/F-12) with Glutamax-I (1:1) (Gibco), supplemented with 10% fetal calf serum (FCS) and maintained at 37° C. in a humidified 5% CO2 atmosphere. […] After removal of the culture medium, the cells were treated once with 300 μL of HBSS-B (Hank's balanced salt solution, Biochrom, Berlin, Germany, with addition of 1% bovine serum albumin (BSA)) and left with 200 μL HBSS-B. Next, 25 μL per well of solutions, containing either HBSS-B (control) or the respective ligand in increasing concentration (10^−10-10^−4 M in HBSS-B, were added with subsequent addition of 25 μL of
[^125I]TOC ([^125I]Tyr^3-Octreotide) (1.0 nM) in HBSS-B. Each concentration is investigated in triplicate. After 60 min incubation at room temperature, the experiment was terminated by removal of the assay medium and consecutive rinsing with 300 μL of cold PBS. The media of both steps were combined in one fraction and represent the amount of unbound radioligand.
Afterwards, the cells were lysed with 300 μL of 1 M NaOH and united with the 300 μL 1 M NaOH of the following wash step. Quantification of bound and unbound radioligand was accomplished in a γ-counter.

T1 sequence (P30874 whole entry, species assumed): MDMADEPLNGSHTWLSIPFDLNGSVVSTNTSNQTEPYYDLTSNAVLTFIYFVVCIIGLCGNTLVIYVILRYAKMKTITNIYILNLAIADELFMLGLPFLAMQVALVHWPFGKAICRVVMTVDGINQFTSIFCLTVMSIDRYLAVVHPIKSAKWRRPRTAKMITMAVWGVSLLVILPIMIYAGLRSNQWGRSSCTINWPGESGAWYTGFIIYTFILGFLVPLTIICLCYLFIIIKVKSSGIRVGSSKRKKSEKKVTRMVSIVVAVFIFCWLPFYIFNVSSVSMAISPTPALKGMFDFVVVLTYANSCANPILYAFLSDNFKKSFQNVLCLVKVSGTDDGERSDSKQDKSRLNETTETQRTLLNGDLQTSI

Row | SMILES | IC50 [nM]
13 | C[C@@H](O)[C@H](NC(=O)C1CSSCC(NC(=O)C(Cc2ccccc2)NC(=O)CNC(=O)CNC(=O)CNC(=O)C(CC(=O)O)NC(=O)[C@@H](CC(=O)O)NC(=O)C(CNC(=O)C[N+](C)(C)Cc2ccc([Si](F)(C(C)(C)C)C(C)(C)C)cc2)NC(=O)CN2CCN(CC(=O)O)CCN(CC(=O)O)CCN(CC(=O)O)CC2)C(=O)N[C@@H](Cc2ccc(O)cc2)C(=O)NC(Cc2c[nH]c3ccccc23)C(=O)N[C@@H](CCCCN)C(=O)N[C@@H]([C@@H](C)O)C(=O)N1)C(=O)O (stereo partly drawn) (natGa complex, metal not drawn) [[Ga]44] | 5.45 ± 0.5
14 | C[C@@H](O)[C@H](NC(=O)C1CSSCC(NC(=O)C(Cc2ccccc2)NC(=O)CNC(=O)CNC(=O)[C@@H](CC(=O)O)NC(=O)C(CC(=O)O)NC(=O)[C@@H](CNC(=O)CC[C@H](C(=O)O)N2CCN(CC(=O)O)CCN(CC(=O)O)CCN(CC(=O)O)CC2)NC(=O)C(CN)NC(=O)c2ccc([Si](F)(C(C)(C)C)C(C)(C)C)cc2)C(=O)N[C@@H](Cc2ccc(O)cc2)C(=O)NC(Cc2c[nH]c3ccccc23)C(=O)N[C@@H](CCCCN)C(=O)N[C@@H]([C@@H](C)O)C(=O)N1)C(=O)O (stereo partly drawn) (natLu complex, metal not drawn) [[Lu]20] | 11 ± 5.69
15 | C[C@@H](O)[C@H](NC(=O)C1CSSCC(NC(=O)C(Cc2ccccc2)NC(=O)[C@@H](CC(N)=O)NC(=O)C(CC(N)=O)NC(=O)CNC(=O)C(CC(=O)O)NC(=O)[C@@H](CC(=O)O)NC(=O)C(CNC(=O)CN2CCN(CC(=O)O)CCN(CC(=O)O)CCN(CC(=O)O)CC2)NC(=O)C[N+](C)(C)Cc2ccc([Si](F)(C(C)(C)C)C(C)(C)C)cc2)C(=O)N[C@@H](Cc2ccc(O)cc2)C(=O)NC(Cc2c[nH]c3ccccc23)C(=O)N[C@@H](CCCCN)C(=O)N[C@@H]([C@@H](C)O)C(=O)N1)C(=O)O (stereo partly drawn) (natGa complex, metal not drawn) [[Ga]49] | 6.31 ± 0.99
